{"source": "patent US20070274947A1", "about": "“Antisense Oligonucleotides Directed to Ribonucleotide Reductase R1 and Uses Thereof in the Treatment of Cancer” (priority 2003, published 2007)", "key": {"[1]": {"test": "Acute intravenous toxicity study in rats (24-hour infusion)", "format": "in vivo, Sprague-Dawley rats", "details": "rat", "excerpt": "The purpose of this study was to assess the adverse effects of SEQ ID NO:1 when administered as a single intravenous dose to Sprague-Dawley rats. […] Parameters assessed included mortality, clinical observations, body weight and food consumption assessment, clinical pathology and urinalysis measurements, and gross examination at necropsy."}, "Hep G2 (liver)": {"tested_on": "Hep G2 (liver)", "test": "Colony forming ability, Hep G2", "format": "cell-based, human", "details": "0.2 μM antisense oligonucleotide/lipofectin, 4 hours", "method": "(§1) The effect of SEQ ID NO:1 on the colony forming ability were evaluated in the following human tumor cell lines:\n(§2) Tumor cells were washed in 5 ml of phosphate buffered saline, pH 7.2, prior to 0.2 μM antisense oligonucleotide/lipofectin treatment for 4 hours. The medium was removed and the cells were gently washed with 5 ml of growth medium. The cells were then cultured in growth medium for seven to ten days. Surviving colonies were visualized by methylene blue staining and colonies of 50 or more cells were scored (Choy et al., 1988 and Huang and Wright, 1994). Results are summarized from 4 to 8 trials for each tumor cell line."}, "A2058 (melanoma)": {"tested_on": "A2058 (melanoma)", "test": "Colony forming ability, A2058", "format": "cell-based, human", "details": "0.2 μM antisense oligonucleotide/lipofectin, 4 hours", "method": "as §1, §2"}, "R1 mRNA": {"tested_on": "R1 mRNA", "test": "Northern blot of R1 mRNA in A2058 human melanoma cells", "format": "cell-based", "details": "0.2 μM, 4 hr with Lipofectin", "method": "A2058 human melanoma cells, grown to subconfluency (70-80%), were treated with 0.2 μM of phosphorothioate antisense ODNs for 4 hr in the presence of cationic lipid (Lipofectin reagent, final concentration, 5 μg/ml, GIBCO BRL) and Opti-MEM (GIBCO BRL). Cells were washed once with PBS and incubated for 16 hr in α-MEM medium (GIBCO BRL) containing 10% FBS. Total RNA was prepared in TRIzol reagent (GIBCO BRL) and northern blot analysis was performed as previously described (Hurta and Wright, J. Cell. Biochem. 57: 543-56, 1995) with some modifications. RNA prepared from cells treated with lipofectin alone (Control), SEQ ID NO:1 and scrambled control analogue (SEQ ID NO:1 Scr) were subjected to electrophoresis through 1% formaldehyde agarose gels followed by transfer to nylon membrane. The blots were hybridized with ^32P-labeled probes that detect R1 mRNA, 28S rRNA, 18S rRNA, thioredoxin mRNA, […], GAPDH mRNA, thioredoxin reductase mRNA, ribosomal protein S9 mRNA, RNase MRP RNA, RNase P RNA and R2 mRNA."}, "[2]": {"tested_on": "MDA-MB435-To.1 human Taxol-resistant breast adenocarcinoma cells", "test": "Taxol-resistant breast adenocarcinoma MDA-MB435-To.1 growth in SCID mice", "format": "in vivo", "method": "MDA-MB435-To.1 human Taxol-resistant breast adenocarcinoma cells (4×10^6 cells in 100 μl of PBS) were injected into the fat pad (inside of right leg) of 6-7 weeks old female SCD mice. After the size of tumor reached an approximate volume of 100 mm^3, 20 days post tumor cell injection, SEQ ID NO:1 was administered by bolus infusion into the tail vein every other day at 10 mg/kg 15 times. Control animals received saline alone for the same period. Antitumor effect of SEQ ID NO:1 was further compared to that of Cisplatin or Taxol alone (FIG. 15A). Cisplatin was administered intravenously once a week for four weeks at a dose of 4 mg/kg. Taxol was administered intravenously once a week for four weeks at a dose of 20 mg/kg. Antitumor activities were estimated by the inhibition of tumor volume, which was measured with caliper (FIG. 15B). Each point represents mean tumor volume calculated from 9-10 animals per experimental group. […] As expected, treatment with Taxol during the same period was ineffective against Taxol-resistant tumor.\nMDA-MB435-To.1 human Taxol-resistant breast adenocarcinoma cells (4×10^6 cells in 100 μl of PBS) were injected into the fat pad (inside of right leg) of 6-7 weeks old female CB-17 SCID mice. After the size of tumor reached an approximate volume of 100 mm^3, 17 days post tumor cell injection, SEQ ID NO:1 was administered by bolus infusion into the tail vein every other day at 10 mg/kg. Control animals received saline alone for the same period. Antitumor effect of SEQ ID NO:1 was compared to that of Cisplatin alone and in combination. Cisplatin was administered intravenously once a week for four weeks at a dose of 4 mg/kg. Antitumor activities were estimated by the inhibition of tumor volume, which was measured with caliper (FIG. 15B). Each point represents mean tumor volume calculated from 10 animals per experimental group. At the end of the study the animals were sacrificed and tumors weighed (FIG. 15C)."}, "LS513 cells": {"tested_on": "LS513 cells", "test": "LS513 multi-drug resistant colon adenocarcinoma growth in SCID mice", "format": "in vivo, human", "method": "LS513 cells (1×10^7 cells in 100 μl of PBS) were subcutaneously injected into the right flank of 6-7 weeks old female SCID mice. After the size of tumor reached an approximate volume of 100 mm^3, 8 days post tumor cell injection, SEQ ID NO:1 was administered by bolus infusion into the tail vein every other day at 10 mg/kg. Control animals received saline alone for the same period. Antitumor effect of SEQ ID NO:1 was further compared to that of CPT-11. CPT-11 was administered i.p. for 5 days at a dose of 20 mg/kg/day. Antitumor activities were estimated by the inhibition of tumor volume, which was measured with calipers. Each point represents mean tumor volume calculated from 10 animals per experimental group (FIG. 16A). Tumor weights were measured after animals were sacrificed at the end of the treatment (FIGS. 16B and 16C). These cells are not resistant to CPT-11, which was used as a positive control."}, "[3]": {"details": "rat, in vivo"}}, "note": "“Also recorded” adds a separate entry of the source."}
{"substance": "5′-CTCTAGCGTCTTAAAGCCGA-3′ (CTCTAGCGTCTTAAAGCCGA; chemistry not given here) [SEQ ID NO:1]", "values": [{"measurement": "toxicological effects", "setting": "[1]; 24-hour continuous i.v. infusion, 40 mg/kg/day", "result": "toxicological effects were not observed"}, {"measurement": "test article related effects", "setting": "[1]; 24-hour continuous i.v. infusion, 60, 80 and 90 mg/kg", "result": "some test article related effects were found"}, {"measurement": "inhibition in colony forming ability", "setting": "Hep G2 (liver)", "result": "greater than 60%"}, {"measurement": "inhibition in colony forming ability", "setting": "A2058 (melanoma)", "result": "greater than 60%"}, {"measurement": "R1 mRNA expression", "setting": "R1 mRNA", "result": "significant decrease; also recorded: significantly decrease expression of R1mRNA"}, {"measurement": "delay in tumor growth compared with Cisplatin", "setting": "[2]; first experiment, Cisplatin 4 mg/kg weekly as positive control", "result": "superior to the inhibitory effects observed with Cisplatin"}, {"measurement": "tumor weight / tumor growth", "setting": "[2]; first experiment, start 20 days post injection, SEQ ID NO:1 10 mg/kg 15 times, Cisplatin 4 mg/kg, Taxol 20 mg/kg weekly for four weeks", "result": "significant reduction of tumor weight"}, {"measurement": "delay in tumor growth compared with Cisplatin", "setting": "[2]; second experiment, CB-17 SCID mice", "result": "superior to the inhibitory effects observed with Cisplatin"}, {"measurement": "tumor weight / tumor growth", "setting": "[2]; second experiment, CB-17 SCID mice, start 17 days post injection, SEQ ID NO:1 10 mg/kg every other day, Cisplatin 4 mg/kg weekly", "result": "significant reduction of tumor weight"}, {"measurement": "efficacy compared with CPT-11", "setting": "LS513 cells; CPT-11 20 mg/kg/day i.p. for 5 days", "result": "more effective than CPT-11"}, {"measurement": "tumor growth (volume, weight)", "setting": "LS513 cells; SCID mice, 10 mg/kg i.v. every other day, vs saline", "result": "significant delay of tumor growth"}, {"measurement": "elimination from plasma (profile)", "setting": "[3]", "result": "biphasic"}, {"measurement": "measurable in plasma post dose", "setting": "[3]", "result": "up to 24 h"}, {"measurement": "plasma levels (AUC and Cmax) versus dose", "setting": "[3]", "result": "increased in proportion to administered dose"}, {"measurement": "time of Cmax / maximum concentration post dose", "setting": "[3]; iv", "result": 5, "unit": "min"}, {"measurement": "apparent terminal elimination phase t1/2", "setting": "[3]; iv, 50 mg/kg", "result": "4.72 to 5.80", "unit": "h"}, {"measurement": "plasma clearance", "setting": "[3]; iv, 50 mg/kg", "result": "49.67-43.30 mL/kg·h"}]}
